What was measured:
[1] = molecular target: T1, Prostaglandin G/H synthase 2 (Mus musculus, UniProt Q05769); assay: Tested for prostaglandin E2 production as a function of COX-2 inhibition using endotoxin-treated murine RAW 264.7 macrophages; format: functional
T1 sequence (Q05769 whole entry): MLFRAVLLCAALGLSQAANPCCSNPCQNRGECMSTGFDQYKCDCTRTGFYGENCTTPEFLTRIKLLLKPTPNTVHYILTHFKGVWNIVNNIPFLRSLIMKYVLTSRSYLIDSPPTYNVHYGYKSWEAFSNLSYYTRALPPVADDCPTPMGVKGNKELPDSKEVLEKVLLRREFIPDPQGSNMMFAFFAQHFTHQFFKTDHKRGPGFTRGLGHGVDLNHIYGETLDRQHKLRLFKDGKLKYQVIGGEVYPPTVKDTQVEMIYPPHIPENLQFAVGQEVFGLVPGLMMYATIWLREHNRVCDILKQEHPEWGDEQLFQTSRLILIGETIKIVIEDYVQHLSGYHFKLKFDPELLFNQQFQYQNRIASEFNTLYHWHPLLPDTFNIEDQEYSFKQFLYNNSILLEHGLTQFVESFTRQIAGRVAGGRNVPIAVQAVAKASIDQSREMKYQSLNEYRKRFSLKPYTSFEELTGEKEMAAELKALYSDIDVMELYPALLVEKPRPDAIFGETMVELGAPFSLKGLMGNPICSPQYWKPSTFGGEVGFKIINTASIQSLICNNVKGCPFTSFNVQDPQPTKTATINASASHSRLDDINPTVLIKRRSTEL

[2] = molecular target: T2, Prostaglandin G/H synthase 2 (Homo sapiens, UniProt P35354)
T2 sequence (P35354 whole entry): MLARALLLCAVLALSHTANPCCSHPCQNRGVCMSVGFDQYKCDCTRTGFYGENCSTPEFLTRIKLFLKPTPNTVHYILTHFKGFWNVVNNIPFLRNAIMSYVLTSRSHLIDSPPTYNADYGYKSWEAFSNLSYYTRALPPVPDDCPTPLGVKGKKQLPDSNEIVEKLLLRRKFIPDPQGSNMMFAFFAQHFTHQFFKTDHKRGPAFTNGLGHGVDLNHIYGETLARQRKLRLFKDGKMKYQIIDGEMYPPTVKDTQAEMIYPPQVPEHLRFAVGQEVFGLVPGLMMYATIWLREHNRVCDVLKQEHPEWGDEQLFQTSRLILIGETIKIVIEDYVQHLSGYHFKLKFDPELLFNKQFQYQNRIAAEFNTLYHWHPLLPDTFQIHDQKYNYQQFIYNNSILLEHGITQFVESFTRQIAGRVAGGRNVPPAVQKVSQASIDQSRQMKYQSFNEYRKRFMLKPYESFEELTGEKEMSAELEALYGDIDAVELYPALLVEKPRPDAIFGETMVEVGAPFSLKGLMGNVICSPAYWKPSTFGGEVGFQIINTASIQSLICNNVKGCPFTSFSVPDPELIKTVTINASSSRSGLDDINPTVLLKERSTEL
Description: Inhibitory activity against human recombinant cyclooxygenase 2

Row | IC50 [2] [nM] | Compound | IC50 [1] [nM]
1 | – | NS(=O)(=O)c1ccc(-c2c(-c3ccccc3)noc2CF)cc1 | 2
2 | – | Cc1onc(-c2ccccc2)c1-c1ccc(S(N)(=O)=O)c(F)c1 | 2
3 | – | Cc1onc(-c2ccc(F)cc2)c1-c1ccc(S(N)(=O)=O)cc1 | 2
4 | 8 | NS(=O)(=O)c1ccc(-c2c(-c3ccccc3)noc2CCF)cc1 | 2

Reference: ChEMBL document CHEMBL1143455 (Bioorg Med Chem Lett, 2005)
